These results are taken from US20250195521A1 (Revolution Medicines, Inc., priority 2020, published 2025).

By IC50 is commonly meant the midpoint of a concentration-inhibition curve.

Where “and” joins values, the source holds several entries; their conditions need not be identical. Equal entries are not always repeated. Where two headings read alike, the source gives them in different places.

The target in assay [1] is KRAS G12D (Homo sapiens (Human), UniProt P01116+P62937, G12D). Nature of the assay: Ras-Raf disruption/FRET/MOA assay (BRAF RBD, Cyclophilin A). The following applies: read-out: KRAS G12D FRET IC50. In kind it is biochemical. Put shortly: (§1)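 His6-K-Ras-GMPPNP (12.5 nM), GST-BRAF RBD (50 nM) and tagless Cyclophilin A (25 μM) were combined in 25 mM HEPES pH 7.3 with 100 mM NaCl, 5 mM MgCl2, 0.1% BSA and 0.002% Tween20, with compound as a 10-point 3-fold series from 30 μM final, then incubated 3 h at 25° C.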
KRAS G12D, sequence (P01116 other isoform, or with tags, fused parts or gaps G12D): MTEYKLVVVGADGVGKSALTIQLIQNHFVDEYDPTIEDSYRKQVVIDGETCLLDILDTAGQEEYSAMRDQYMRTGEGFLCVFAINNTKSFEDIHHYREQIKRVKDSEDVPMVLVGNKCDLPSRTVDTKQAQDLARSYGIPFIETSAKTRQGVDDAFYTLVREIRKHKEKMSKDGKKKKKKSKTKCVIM
KRAS G12D, sequence (P62937 whole entry): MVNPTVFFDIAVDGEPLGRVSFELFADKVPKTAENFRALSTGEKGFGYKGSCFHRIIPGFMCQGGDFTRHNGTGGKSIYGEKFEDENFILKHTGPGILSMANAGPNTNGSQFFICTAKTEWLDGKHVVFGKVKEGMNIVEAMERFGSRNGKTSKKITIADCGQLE

Assay [2] deals with KRAS G13C (Homo sapiens (Human), UniProt P01116+P62937, G13C). The description is as above. Type of assay: biochemical. The note with it: read-out: KRAS G13C FRET IC50. Put shortly: as §1
KRAS G13C, sequence (P01116 other isoform, or with tags, fused parts or gaps G13C): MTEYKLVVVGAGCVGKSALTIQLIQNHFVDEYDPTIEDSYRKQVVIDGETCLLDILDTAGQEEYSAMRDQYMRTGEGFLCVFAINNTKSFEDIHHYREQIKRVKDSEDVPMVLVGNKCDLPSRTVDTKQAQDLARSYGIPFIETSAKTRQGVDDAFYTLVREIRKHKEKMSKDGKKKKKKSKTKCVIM
KRAS G13C, sequence (P62937 whole entry): as the sequence (P62937 whole entry) above
The target of assay [3] is NRAS G12C (Homo sapiens (Human), UniProt P01111+P62937, G12C). The assay is described as above. Type of assay: biochemical. The note with it: read-out: NRAS G12C FRET data IC50. The gist of the method:
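Ras-GMPPNP (12.5 nM), BRAF RBD (50 nM) and 25 μM Cyclophilin A were incubated with compound for 3 h at 25° C, then detected 1.5 h with anti-His Eu and anti-GST APC; IC50 values follow from the reduced TR-FRET ratio.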

For assay [4], the target named is KRAS G12S (Homo sapiens (Human), UniProt P01116+P62937, G12S). The assay is described as above. Type of assay: biochemical. The note with it: read-out: KRAS G12S FRET IC50. Put shortly: as §1
KRAS G12S, sequence (P01116 other isoform, or with tags, fused parts or gaps G12S): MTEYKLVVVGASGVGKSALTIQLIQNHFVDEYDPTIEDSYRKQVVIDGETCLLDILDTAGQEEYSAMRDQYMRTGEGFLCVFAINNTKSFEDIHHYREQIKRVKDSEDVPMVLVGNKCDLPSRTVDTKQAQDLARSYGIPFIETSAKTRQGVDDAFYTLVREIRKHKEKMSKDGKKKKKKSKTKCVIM
KRAS G12S, sequence (P62937 whole entry): as the sequence (P62937 whole entry) above
For assay [5], the target named is KRAS G13D (Homo sapiens (Human), UniProt P01116+P62937, G13D). The assay is described as above. The following applies: read-out: KRAS G13D FRET data IC50. In kind it is biochemical. Put shortly:
as §1

The target in assay [6] is KRAS WT (Homo sapiens (Human), UniProt P01116+P62937). The description is as above. The note with it: read-out: KRAS WT FRET data IC50. Type of assay: biochemical. The gist of the method:
as §1

Assay [7] concerns the target KRAS G12V (Homo sapiens (Human), UniProt P01116+P62937, G12V). The assay is described as above. Type of assay: biochemical. The note with it: read-out: KRAS G12V FRET IC50. The gist of the method:
as §1

For assay [8], the target named is KRAS G12C (Homo sapiens (Human), UniProt P01116+P62937, G12C). The assay is described as above. Type of assay: biochemical. The following applies: read-out: KRAS G12C FRET IC50. Put shortly: as §1
KRAS G12C, sequence (P01116-2 other isoform, or with tags, fused parts or gaps G12C): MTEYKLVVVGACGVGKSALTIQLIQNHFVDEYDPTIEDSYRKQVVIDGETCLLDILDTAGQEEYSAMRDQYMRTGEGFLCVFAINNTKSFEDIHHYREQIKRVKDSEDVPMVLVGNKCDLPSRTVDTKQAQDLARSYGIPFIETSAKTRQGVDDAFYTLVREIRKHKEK
KRAS G12C, sequence (P62937 whole entry): as the sequence (P62937 whole entry) above
The subject of assay [9] is NCI-H358 (K-Ras G12C). Briefly: CellTiter-Glo cell viability assay, NCI-H358. Type of assay: cell-based, human. The note with it: 5-day treatment, read-out: H358 Cell Viability assay data (K-Ras G12C, IC50). The gist of the method:
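Viability is measured as ATP-dependent luminescence (CellTiter-Glo) five days into compound treatment. Responses are normalized to vehicle (DMSO) wells and fitted by four-parameter logistic regression.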

KRAS G13D, sequence (P01116 other isoform, or with tags, fused parts or gaps G13D): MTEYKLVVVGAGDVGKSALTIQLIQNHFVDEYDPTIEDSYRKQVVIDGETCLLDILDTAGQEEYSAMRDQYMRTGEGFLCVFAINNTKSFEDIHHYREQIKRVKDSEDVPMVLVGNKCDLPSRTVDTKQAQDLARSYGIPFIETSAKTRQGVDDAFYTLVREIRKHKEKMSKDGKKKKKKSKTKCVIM
KRAS G13D, sequence (P62937 whole entry): as the sequence (P62937 whole entry) above
KRAS G12V, sequence (P01116 other isoform, or with tags, fused parts or gaps G12V): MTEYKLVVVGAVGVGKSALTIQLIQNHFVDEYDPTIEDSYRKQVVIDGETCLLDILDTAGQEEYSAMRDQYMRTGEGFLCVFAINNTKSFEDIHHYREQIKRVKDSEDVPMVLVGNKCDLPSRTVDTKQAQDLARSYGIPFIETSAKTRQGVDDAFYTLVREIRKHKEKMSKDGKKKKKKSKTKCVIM
KRAS G12V, sequence (P62937 whole entry): as the sequence (P62937 whole entry) above
KRAS WT, sequence (P01116 other isoform, or with tags, fused parts or gaps): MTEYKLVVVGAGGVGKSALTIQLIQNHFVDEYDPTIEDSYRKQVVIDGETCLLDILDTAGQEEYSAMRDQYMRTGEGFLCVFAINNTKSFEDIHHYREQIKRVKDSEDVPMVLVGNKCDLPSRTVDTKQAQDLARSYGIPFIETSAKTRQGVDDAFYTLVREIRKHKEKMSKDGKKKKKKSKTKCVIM
KRAS WT, sequence (P62937 whole entry): as the sequence (P62937 whole entry) above
NRAS G12C, sequence (P01111 whole entry G12C): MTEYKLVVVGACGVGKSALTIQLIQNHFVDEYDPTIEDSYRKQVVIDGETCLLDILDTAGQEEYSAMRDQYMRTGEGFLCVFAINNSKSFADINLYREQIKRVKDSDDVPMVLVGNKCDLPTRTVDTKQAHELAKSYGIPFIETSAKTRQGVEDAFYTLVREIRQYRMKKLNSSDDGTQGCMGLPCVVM
NRAS G12C, sequence (P62937 whole entry): as the sequence (P62937 whole entry) above

For the compound `CCn1c(-c2cccnc2[C@H](C)OC)c2c3cc(ccc31)-c1cc(O)cc(c1)C[C@H](NC(=O)[C@H](C(C)C)N(C)C(=O)[C@H]1CCN(C(C)=O)C1)C(=O)N1CCC[C@H](N1)C(=O)OCC(C)(C)C2` [Compound A5], the IC50 in assay [1] was in the range of 0.1 to 1 µM; in [2], 0.1 to 1 µM; in assay [3], 0.01 to 0.1 µM; in [4] it was 0.01 to 0.1 µM; in [5], 0.1 to 1 µM; in assay [6], 0.1 to 1 µM. In addition, the IC50 was 0.01 to 0.1 µM in [7]; 0.01 to 0.1 µM in [8]; 0.01 to 0.1 µM in assay [9] (Homo sapiens, NCI-H358, 120 h).

`CCn1c(-c2cccnc2[C@H](C)OC)c2c3cc(ccc31)-c1csc(n1)C[C@H](NC(=O)[C@H](C(C)C)N(C)C(=O)[C@H]1CCN(C(=O)CN(C)C)C1)C(=O)N1CCC[C@H](N1)C(=O)OCC(C)(C)C2` [Compound A97]: the IC50 was 1 to 10 µM in assay [1]; 1 to 10 µM in assay [2]; 0.1 to 1 µM in [3]; 1 to 10 µM in [4]; 1 to 10 µM in assay [5]; 1 to 10 µM in assay [6]. For the same compound, the IC50 in assay [7] lay within 1 to 10 µM; in [8], 0.1 to 1 µM; in [9] (Homo sapiens, NCI-H358, 120 h), 0.01 to 0.1 µM.

Turning to `CCn1c(-c2cccnc2[C@H](C)OC)c2c3cc(ccc31)-c1cccc(c1)C[C@H](NC(=O)[C@H](C(C)C)N(C)C(=O)[C@H]1CCNC1)C(=O)N1CCC[C@H](N1)C(=O)OCC(C)(C)C2` [Compound A119], the IC50 in [1] was 1 to 10 µM; in assay [2] it was 0.1 to 1 µM; in [3], 1 to 10 µM; in assay [4] it was 0.1 to 1 µM; in assay [5], 0.1 to 1 µM; in [6], 1 to 10 µM. Moreover, the IC50 is greater than 10 µM in assay [7] and 1 to 10 µM in assay [8].

For `CCn1c(-c2cccnc2[C@H](C)OC)c2c3cc(ccc31)-c1cc(O)cc(c1)C[C@H](NC(=O)C(=C(C)C)N(C)C(C)=O)C(=O)N1CCC[C@H](N1)C(=O)OCC(C)(C)C2` [Compound A142], the IC50 in assay [1] was greater than 10 µM; in [2], 0.1 to 1 µM; in assay [3] it was 1 to 10 µM; in assay [4], 1 to 10 µM; in [5] it was 1 to 10 µM; in [6], 1 to 10 µM. For the same compound, the IC50 fell in the range of 1 to 10 µM in assay [7]; 1 to 10 µM in assay [8]; 0.1 to 1 µM in [9] (Homo sapiens, NCI-H358, 120 h).

Take `CCn1c(-c2cccnc2[C@H](C)OC)c2c3cc(ccc31)-c1cc(cc3nc[nH]c13)C[C@H](NC(=O)[C@H](C(C)C)N(C)C(C)=O)C(=O)N1CCC[C@H](N1)C(=O)OCC(C)(C)C2` [Compound A153]: the IC50 in assay [1], in assay [2], in assay [3], in assay [4], in [5] and in assay [6] was greater than 10 µM in each case. The IC50 in [7] is greater than 10 µM; in assay [9] (Homo sapiens, NCI-H358, 120 h), 0.1 to 1 µM.

On to `CCn1c(-c2cccnc2[C@H](C)OC)c2c3cc(ccc31)-c1cc(cc(S(C)(=O)=O)c1)C[C@H](NC(=O)[C@H](C(C)C)N(C)C(C)=O)C(=O)N1CCC[C@H](N1)C(=O)OCC(C)(C)C2` [Compound A154], for which the IC50 in assay [1], in assay [2], in assay [3], in assay [4], in [5] and in [6] was greater than 10 µM throughout. In addition, the IC50 is greater than 10 µM in assay [7] and 0.01 to 0.1 µM in assay [9] (Homo sapiens, NCI-H358, 120 h).

For `CCn1c(-c2cccnc2[C@H](C)OC)c2c3cc(ccc31)-c1cc(O)cc(c1)C[C@H](NC(=O)[C@H](C(C)C)N(C)C(=O)[C@H]1CCN(C3CC3)C1)C(=O)N1CCC[C@H](N1)C(=O)OCC(C)(C)C2` [Compound A175], the half-inhibitory concentration (IC50) in [1] lay in the range of 1 to 10 µM; in [2], 0.1 to 1 µM; in assay [3], 1 to 10 µM; in assay [4] it was 1 to 10 µM; in assay [5] it was 1 to 10 µM; in [6] it was 1 to 10 µM. For the same compound, the IC50 in [7] was greater than 10 µM; in assay [8], 1 to 10 µM; in [9] (Homo sapiens, NCI-H358, 120 h), less than 0.01 µM.

As for `CCn1c(-c2cccnc2[C@H](C)OC)c2c3cc(ccc31)-c1csc(n1)C[C@H](NC(=O)[C@H](C(C)C)N(C)C(=O)C1COC1)C(=O)N1CCC[C@H](N1)C(=O)OCC(C)(C)C2` [Compound A245], the IC50 in assay [1] is greater than 10 µM; in assay [2], 1 to 10 µM; in [3], 1 to 10 µM; in [4] it was 1 to 10 µM; in assay [6], 1 to 10 µM; in assay [7] it was 1 to 10 µM. Besides, the IC50 in assay [8] is 1 to 10 µM; in assay [9] (Homo sapiens, NCI-H358, 120 h), less than 0.01 µM.

`CCn1c(-c2cccnc2[C@H](C)OC)c2c3cc(ccc31)-c1cccc(c1)C[C@H](NC(=O)[C@H](C(C)C)N(C)C(=O)C1COC1)C(=O)N1CCC[C@H](N1)C(=O)OCC(C)(C)C2` [Compound A246]: the IC50 in assay [1] was greater than 10 µM; in assay [2], 1 to 10 µM; in [3], 1 to 10 µM; in assay [4] it was 1 to 10 µM; in [5], 1 to 10 µM; in [6] it was 1 to 10 µM. The IC50 in assay [7] was 1 to 10 µM; in [8], 1 to 10 µM; in assay [9] (Homo sapiens, NCI-H358, 120 h), less than 0.01 µM.

Turning to `CCn1c(-c2cccnc2[C@H](C)OC)c2c3cc(ccc31)-c1cc(O)cc(c1)C[C@H](NC(=O)[C@H](C(C)C)N(C)C(=O)C1CC(=O)N(C3CC3)C1)C(=O)N1CCC[C@H](N1)C(=O)OCC(C)(C)C2` (stereo partly drawn) [Compound A252], the IC50 in assay [1] was 0.1 to 1 µM; in assay [2], 0.01 to 0.1 µM; in assay [3], 0.01 to 0.1 µM; in assay [4], 0.01 to 0.1 µM; in assay [5], 0.1 to 1 µM and 0.01 to 0.1 µM; in assay [6] it was 0.01 to 0.1 µM. In addition, the IC50 in [7] is 0.1 to 1 µM and 0.01 to 0.1 µM; in assay [8], 0.01 to 0.1 µM; in assay [9] (Homo sapiens, NCI-H358, 120 h) it was 0.01 to 0.1 µM.

Regarding `CCn1c(-c2cnccc2COC)c2c3cc(ccc31)-c1cc(O)cc(c1)C[C@H](NC(=O)[C@H](C(C)C)N(C)C(=O)N1CCNCC1)C(=O)N1CCC[C@H](N1)C(=O)OCC(C)(C)C2` [Compound A255], the IC50 lay within 0.1 to 1 µM in assay [1]; 0.01 to 0.1 µM in assay [2]; 0.1 to 1 µM in assay [3]; 0.1 to 1 µM in assay [4]; 0.01 to 0.1 µM in assay [5]; 0.1 to 1 µM in [6]. Also, the IC50 is 0.1 to 1 µM in assay [7]; 0.01 to 0.1 µM in assay [8]; less than 0.01 µM in assay [9] (Homo sapiens, NCI-H358, 120 h).

As to `CCn1c(-c2cc(N3CCN(C)CC3)cnc2[C@H](C)OC)c2c3cc(ccc31)-c1nc(co1)C[C@H](NC(=O)[C@H]1[C@H](C)[C@@H]1C)C(=O)N1CCC[C@H](N1)C(=O)OCC(C)(C)C2` [Compound A391, (1r,2R,3S)—N-((6^3S,4S,Z)-1^1-ethyl-1^2-(2-((S)-1-methoxyethyl)-5-(4-methylpiperazin-1-yl)pyridin-3-yl)-10,10-dimethyl-5,7-dioxo-6^1,6^2,6^3,6^4,6^5,6^6-hexahydro-1^1H-8-oxa-2 (2,4)-oxazola-1 (5,3)-indola-6 (1,3)-pyridazinacycloundecaphane-4-yl)-2,3-dimethylcyclopropane-1-carboxamide], the IC50 in [1] is 0.01 to 0.1 µM; in [2], 0.01 to 0.1 µM; in assay [4] it was 0.01 to 0.1 µM; in assay [7], 0.01 to 0.1 µM; in assay [8] it was 0.01 to 0.1 µM; in [9], less than 0.01 µM.

Take `CCn1c(-c2cccnc2[C@H](C)OC)c2c3cc(ccc31)-c1cc(O)cc(c1)C[C@H](NC(=O)[C@H](C(C)C)N(C)C(=O)C13CCC(CO1)C3)C(=O)N1CCC[C@H](N1)C(=O)OCC(C)(C)C2` [Compound A411]: the IC50 was 0.1 to 1 µM in assay [1]; 0.1 to 1 µM in [2]; 0.01 to 0.1 µM in assay [3]; 0.01 to 0.1 µM in [4]; 0.1 to 1 µM in assay [7]; 0.01 to 0.1 µM in assay [8]. In addition, the IC50 in assay [9] (Homo sapiens, NCI-H358, 120 h) is less than 0.01 µM.
